{"source": "patent US20250099409A1", "about": "“TOPICAL THERAPEUTIC” (Beta Biofuel Solutions, LLC, priority 2022, published 2025)", "key": {"[1]": {"test_system": "severe mouth sores, pain, and skin eruptions", "assay": "Example 7: Patient G, oral spray in cancer patient on Taxotere and Carboplatin chemotherapy", "type": "in vivo, human", "experimental": "Set up: The trial consisted of administering a topical therapeutic spray to a cancer patient receiving Taxotere and Carboplatin chemotherapy. The side effects of cancer treatment presented the patient with severe mouth sores, pain, and skin eruptions which prevented regular mastication and intake of food and some beverages. Patient G's tastebuds were also severely affected, and the taste was unreliable. […] About 250 mg/L concentration of sodium pyruvate oral spray was administered inside the mouth and throat at 1 ml per spray, two to three sprays per administration. […] The product was used ad hoc to provide continuous comfort as saliva reintroduced the chemicals causing discomfort. […] However, issues with taste were not improved with the topical therapeutic spray."}, "[2]": {"test_system": "rhinitis, and burning in the nose and throat resulting from secondhand cigarette smoke", "assay": "Example 1: Patient A, topical therapeutic spray to nasal cavities and throat", "type": "in vivo, human", "experimental": "Set up: The trial consisted of administering a topical therapeutic spray to a patient suffering from rhinitis, and burning in the nose and throat resulting from persistent and long-term exposure to secondhand cigarette smoke. About 250 mg/L concentration of sodium pyruvate incorporated spray was administered to the nasal cavities and throat at about 1 ml per spray, administered two to three sprays per administration.\nThe spray treatment was re-applied a couple of hours later. […] The spray was applied prophylactically before bed."}, "[3]": {"test_system": "epidermal disturbances from psoriatic plaques", "assay": "Example 2: Patient B, topical therapeutic wipe on psoriatic plaques on the back", "type": "in vivo, human", "experimental": "(§1) Set up: The trial consisted of administering a topical therapeutic wipe to patients suffering from epidermal disturbances from psoriatic plaques. […] About 250 mg/L concentration of sodium pyruvate formulated with glycerin emollient imbued was administered to the affected area via an imbued wipe. The treatment was applied twice a day, once in the morning and once in the evening."}, "[4]": {"test_system": "epidermal disturbances from psoriatic plaques", "assay": "Example 3: Patient C, roll-on on psoriatic plaques behind ears and scalp", "type": "in vivo, human", "experimental": "as §1, with “spray” for “wipe”, “a patient” for “patients”, “emollient” for “emollient imbued”, “roll-on.” for “wipe.”"}, "[5]": {"test_system": "redness and burning on the general epidermis and deep muscle pain post-radiation therapy", "assay": "Example 4: Patient D, spray and wipe in breast cancer patient post-radiation therapy", "type": "in vivo, human", "excerpt": "Set up: The trial consisted of administering a topical therapeutic spray and wipe to a breast cancer patient suffering from redness and burning on the general epidermis and deep muscle pain post-radiation therapy treatment. The patient received 30 daily radiation treatments in just over a month. […] The topical therapeutic spray was used afterwards ad hoc."}, "[6]": {"test_system": "severe burning, itching, and peeling in the urethral, vaginal, and anal areas", "assay": "Example 5: Patient E, imbued wipe in patient on Taxotere and Carboplatin chemotherapy with monoclonal antibody infusion", "type": "in vivo, human", "settings": "continued administration of wipe", "experimental": "Set up: The trial consisted of administering a topical therapeutic imbued wipe to a patient receiving a concurrent Taxotere and Carboplatin chemotherapy, with monoclonal antibody infusion treatments. The side effects of cancer treatment presented the patient with severe burning, itching, and peeling in the urethral, vaginal, and anal areas due to the elimination of the chemicals via urine and stools. About 250 mg/L concentration of sodium pyruvate formulated with glycerin emollient wipe was used to clean the affected areas after elimination, in addition to when the discomforts were present.\nPatient E continued using the topical treatment concurrently with cancer therapy, and for about a month after."}, "[7]": {"test_system": "redness, itchy splotches on the underside of the body, and fur-less areas around the ears due to ragweed pollen sensitivity", "assay": "Example 6: Patient F, spray on dog with ragweed pollen sensitivity", "type": "in vivo, Jack Russel Terrier", "experimental": "Set up: The trial consisted of administering a topical therapeutic spray to a 5-year-old Jack Russel Terrier suffering from redness, itchy splotches on the underside of the body, and fur-less areas around the ears due to ragweed pollen sensitivity. […] After cleaning with water and drying the affected areas, about 250 mg/L concentration of sodium pyruvate spray formulated with glycerin was applied to the undercarriage and ears.\nSummary: After the first administration, the redness subsided, and the dog relaxed within 15 minutes. The treatment was administered after each time the dog went outside and continued throughout the ragweed pollen season."}, "[8]": {"test_system": "moderate sunburn on the face, shoulders, and arms", "assay": "Example 8: Patient H, spray on moderate sunburn", "type": "in vivo, human", "experimental": "Set up: The trial consisted of administering a topical therapeutic spray to a patient with moderate sunburn on the face, shoulders, and arms early in the summer season while working on a field project. The patient had used sunscreen, but due to the prolonged exposure, the effects of the sunburn were present. The face was particularly red as it was directly exposed to ultraviolet (UV) radiation and not covered by clothing. About 250 mg/L concentration of sodium pyruvate formulated with glycerin emollient spray was applied to the affected areas.\nThe spray was applied for another day until the redness subsided."}, "[9]": {"test_system": "redness, burning, and skin inflammation after exposure to irritating vegetation, e.g., poison ivy", "assay": "Example 9: Patient I, spray after exposure to irritating vegetation", "type": "in vivo, human", "settings": "about 250 mg/L with glycerin emollient spray, after the first administration", "experimental": "The affected area was cleaned with cold water without soap to remove the oils and waxes transferred from the plant. About 250 mg/L concentration of sodium pyruvate formulated with glycerin emollient spray was applied to the affected areas of the general epidermis.\nThe topical therapeutic spray was readministered ad hoc depending on the severity of the exposure."}, "[10]": {"test_system": "burning throat due to atmospheric dryness, allergic reaction, or disease state reaction", "assay": "Example 10: Patient J, oral spray for burning throat", "type": "in vivo, human", "settings": "about 250 mg/L oral spray, 1 ml per spray, two to three sprays, after the first administration", "experimental": "Set up: The trial consisted of administering a topical therapeutic spray to a patient suffering from a burning throat due to atmospheric dryness, allergic reaction, or disease state reaction. About 250 mg/L concentration of sodium pyruvate oral spray was administered inside the mouth and throat at 1 ml per spray, two to three sprays per administration.\nThe product was used ad hoc to provide continuous comfort."}}}
{"smiles": "O=C([O-])O.[Na+]", "note": "[baking soda]", "values": [{"measurement": "alleviation of mouth sores, pain and skin eruptions", "setting": "[1]; applied to the affected areas as recommended, before the topical therapeutic", "value": "did little to alleviate the problem"}]}
{"smiles": "CC(=O)C(=O)[O-].[Na+]", "note": "[sodium pyruvate, 2-oxopropanoic acid sodium salt]", "values": [{"measurement": "effect of the second treatment on burning", "setting": "[2]; about 250 mg/L spray re-applied a couple of hours later", "value": "complete alleviation of the burning to both the nose and throat"}, {"measurement": "time to reduced burning or itching in the affected nasal and throat areas", "setting": "[2]; about 250 mg/L spray, about 1 ml per spray, two to three sprays, after the first administration", "value": "≤ 15", "unit": "min"}, {"measurement": "recurrence of pain and burning", "setting": "[2]; spray also applied prophylactically before bed", "value": "never returned"}, {"measurement": "outcome with continuous administration", "setting": "[3]; about 250 mg/L with glycerin emollient, imbued wipe, twice a day", "value": "itching and burning did not return, and the skin surface returned to normal form"}, {"measurement": "time to reduced burning or itching", "setting": "[3]; about 250 mg/L with glycerin emollient, imbued wipe, twice a day, after administration", "value": "≤ 15", "unit": "min"}, {"measurement": "outcome when treatment was interrupted", "setting": "[3]; treatment interrupted", "value": "the plaques returned along with itching and burning"}, {"measurement": "outcome with continuous administration", "setting": "[4]; about 250 mg/L with glycerin emollient, imbued roll-on, twice a day", "value": "itching and burning did not return and the skin surface returned to normal form"}, {"measurement": "time to reduced burning and itching", "setting": "[4]; about 250 mg/L with glycerin emollient, imbued roll-on, twice a day, after administration", "value": "≤ 15", "unit": "min"}, {"measurement": "outcome when administration was interrupted", "setting": "[4]; administration interrupted", "value": "the plaques returned along with itching and burning"}, {"measurement": "time to reduction in burning", "setting": "[5]; about 250 mg/L with glycerin emollient, after the first administration via an imbued cloth wipe", "value": "≤ 30", "unit": "min"}, {"measurement": "blistering to the skin", "setting": "[5]; about 250 mg/L with glycerin emollient, imbued cloth wipe", "value": "without any blistering to the skin"}, {"measurement": "browning of the affected area (remark of radiation oncologist at follow-up visits)", "setting": "[5]; wipe, then spray ad hoc", "value": "dissipated more rapidly than usual"}, {"measurement": "sloughing of damaged skin", "setting": "[6]", "value": "ceased within a few days of continued administration"}, {"measurement": "time until the redness subsided and the dog relaxed", "setting": "[7]; about 250 mg/L spray with glycerin on undercarriage and ears, after the first administration", "value": "≤ 15", "unit": "min"}, {"measurement": "outcome when administration was interrupted", "setting": "[7]; during the pollen season, administration interrupted", "value": "the itching, redness, and scratching returned"}, {"measurement": "time to almost complete relief of pain and burn", "setting": "[1]; about 250 mg/L oral spray, 1 ml per spray, two to three sprays, after the first administration", "value": "≤ 30", "unit": "min"}, {"measurement": "consumption of food and drinks", "setting": "[1]; oral spray used ad hoc", "value": "able to regularly consume food and drinks without discomfort"}, {"measurement": "issues with taste", "setting": "[1]; oral spray used ad hoc", "value": "not improved"}, {"measurement": "sores, pain and discomfort with use of the spray", "setting": "[1]; oral spray used ad hoc", "value": "the sores resolved, and the pain and discomfort were managed"}, {"measurement": "time to reduced burning", "setting": "[8]; about 250 mg/L with glycerin emollient spray, after the first administration", "value": "≤ 15", "unit": "min"}, {"measurement": "blistering and peeling of the skin due to sunburn", "setting": "[8]; spray applied for another day until the redness subsided", "value": "aided in the prevention of blistering and peeling"}, {"measurement": "time to reduced burning and itching", "setting": "[9]", "value": "≤ 15", "unit": "min"}, {"measurement": "time to reduced burning, itching, and general discomfort", "setting": "[10]", "value": "≤ 15", "unit": "min"}]}
